Measured values taken from patent US20150105252A1, “SUBSTITUTED PYRAZOLES AS HERBICIDES” (E I DU PONT DE NEMOURS AND COMPANY, priority 2013, published 2015).

Legend:
barnyardgrass [1] = experiment: Test A preemergence; format: in vivo, Echinochloa crus-galli; conditions: 0 to 100 scale
How it was run: (§1)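 Visual injury ratings, 0 = no effect to 100 = complete control, taken about 10 days after treatment against untreated controls. Test chemicals, in a non-phytotoxic surfactant-containing solvent, were sprayed onto soil preemergence or onto one- to two-leaf plants (2–10 cm) postemergence, in loam–sand soil under greenhouse conditions.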

crabgrass, large [2] = experiment: Test A preemergence; format: in vivo, Digitaria sanguinalis; conditions: 0 to 100 scale
How it was run: as §1

foxtail, giant [3] = experiment: Test A preemergence; format: in vivo, Setaria faberii; conditions: 0 to 100 scale
How it was run: as §1

morningglory [4] = experiment: Test A preemergence; format: in vivo, Ipomoea spp.; conditions: 0 to 100 scale
How it was run: as §1

pigweed [5] = experiment: Test A preemergence; format: in vivo, Amaranthus retroflexus; conditions: 0 to 100 scale
How it was run: as §1

velvetleaf [6] = experiment: Test A preemergence; format: in vivo, Abutilon theophrasti; conditions: 0 to 100 scale
How it was run: as §1

wheat [7] = experiment: Test A preemergence; format: in vivo, Triticum aestivum; conditions: preemergence
How it was run: as §1

corn [8] = experiment: Test A preemergence; format: in vivo, Zea mays; conditions: 0 to 100 scale
How it was run: as §1

barnyardgrass [9] = experiment: Test A postemergence; format: in vivo, Echinochloa crus-galli; conditions: Postemergence
How it was run: as §1

crabgrass, large [10] = experiment: Test A postemergence; format: in vivo, Digitaria sanguinalis
How it was run: as §1

foxtail, giant [11] = experiment: Test A postemergence; format: in vivo, Setaria faberii
How it was run: as §1

morningglory [12] = experiment: Test A postemergence; format: in vivo, Ipomoea spp.
How it was run: as §1

pigweed [13] = experiment: Test A postemergence; format: in vivo, Amaranthus retroflexus
How it was run: as §1

velvetleaf [14] = experiment: Test A postemergence; format: in vivo, Abutilon theophrasti
How it was run: as §1

wheat [15] = experiment: Test A postemergence; format: in vivo, Triticum aestivum
How it was run: as §1

corn [16] = experiment: Test A postemergence; format: in vivo, Zea mays
How it was run: as §1

rice = experiment: Test C flooded paddy test; format: in vivo, Oryza sativa; conditions: Flood
Description: (§2) At time of treatment, test pots were flooded to 3 cm above the soil surface, treated by application of test compounds directly to the paddy water, and then maintained at that water depth for the duration of the test. Treated plants and controls were maintained in a greenhouse for 13 to 15 days, after which time all species were compared to controls and visually evaluated. […] A dash (-) response means no test result.

sedge, umbrella = experiment: Test C flooded paddy test; format: in vivo, Cyperus difformis; conditions: Flood
Description: as §2

ducksalad = experiment: Test C flooded paddy test; format: in vivo, Heteranthera limosa; conditions: Flood
Description: as §2

barnyardgrass [17] = experiment: Test C flooded paddy test; format: in vivo, Echinochloa crus-galli; conditions: Flood
Description: as §2

[18] = Preemergence, 500 g ai/ha, 0 no effect, 100 complete control
[19] = preemergence, 125 g ai/ha, visual injury, approx. 10 days
[20] = 125 g ai/ha, visual injury, 0 to 100 scale, approx. 10 days
[21] = 125 g ai/ha, 0 to 100 scale, 0 no effect, 100 complete control
[22] = 500 g ai/ha, visual rating after approx. 10 days, 0 to 100 scale (0 no effect, 100 complete control)
[23] = Postemergence, 500 g ai/ha, visual rating after approx. 10 days, 0 to 100 scale (0 no effect, 100 complete control)
[24] = postemergence, 125 g ai/ha, about 10 days, visual rating on 0 to 100 scale (0 no effect, 100 complete control)
[25] = 31 g ai/ha, scale 0 to 100 (0 no effect, 100 complete control)
[26] = 62 g ai/ha, scale 0 to 100 (0 no effect, 100 complete control)

`CNC(=O)c1cc(C)n(Cc2cccc(OC(F)(F)F)c2)n1` [Compound 3] was tested, and the “Barnyardgrass plant response rating” value (barnyardgrass [1]; [18]) was 0, the “Barnyardgrass plant response rating” value (barnyardgrass [1]; [19]) was 0 and the “Crabgrass, Large plant response rating” value (crabgrass, large [2]; [18]) was 30. The “Crabgrass, Large plant response rating” value (crabgrass, large [2]; [19]) was 0, the “Foxtail, Giant plant response rating” value (foxtail, giant [3]; [18]) was 20 and the “Foxtail, Giant plant response rating” value (foxtail, giant [3]; [19]) was 0. For the same compound, the “Morningglory plant response rating” value (morningglory [4]; [18]) was 0, the “Morningglory plant response rating” value (morningglory [4]; [19]) was 0 and the “Pigweed plant response rating” value (pigweed [5]; [18]) was 100. The “Pigweed plant response rating” value (pigweed [5]; [19]) was 0, the “Velvetleaf plant response rating” value (velvetleaf [6]; [18]) was 0 and the “Velvetleaf plant response rating” value (velvetleaf [6]; [19]) was 0. The “Wheat plant response rating” value (wheat [7]; [20]) was 0, the “Corn plant response rating” value (corn [8]; [18]) was 0 and the “Corn plant response rating” value (corn [8]; [19]) was 0. For the same compound, the “Barnyardgrass plant response rating” value (barnyardgrass [9]; [21]) was 0, the “Barnyardgrass plant response rating” value (barnyardgrass [9]; [22]) was 0 and the “Crabgrass, Large plant response rating” value (crabgrass, large [10]; [23]) was 10. For the same compound, the “Crabgrass, Large plant response rating” value (crabgrass, large [10]; [24]) was 0, the “Foxtail, Giant plant response rating” value (foxtail, giant [11]; [23]) was 0 and the “Foxtail, Giant plant response rating” value (foxtail, giant [11]; [24]) was 0. The “Morningglory plant response rating” value (morningglory [12]; [23]) was 20, the “Morningglory plant response rating” value (morningglory [12]; [24]) was 10 and the “Pigweed plant response rating” value (pigweed [13]; [23]) was 70. The “Pigweed plant response rating” value (pigweed [13]; [24]) was 20, the “Velvetleaf plant response rating” value (velvetleaf [14]; [23]) was 20 and the “Velvetleaf plant response rating” value (velvetleaf [14]; [24]) was 0. For the same compound, the “Wheat plant response rating” value (wheat [15]; [23]) was 0, the “Wheat plant response rating” value (wheat [15]; [24]) was 0 and the “Corn plant response rating” value (corn [16]; [23]) was 10. For the same compound, the “Corn plant response rating” value (corn [16]; [24]) was 0, the “Plant response rating, Rice” value (rice; [25]) was 0 and the “Plant response rating, Rice” value (rice; [26]) was 0. The “Plant response rating, Rice” value (rice; 125 g ai/ha, scale 0 to 100) was 0, the “Plant response rating, Rice” value (rice; 250 g ai/ha, scale 0 to 100) was 0 and the “Plant response rating, Sedge, Umbrella” value (sedge, umbrella; [25]) was 0. The “Plant response rating, Sedge, Umbrella” value (sedge, umbrella; [26]) was 0, the “Plant response rating, Sedge, Umbrella” value (sedge, umbrella; 125 g ai/ha, scale 0 to 100) was 0 and the “Plant response rating, Sedge, Umbrella” value (sedge, umbrella; 250 g ai/ha, scale 0 to 100) was 0. The “Plant response rating, Ducksalad” value (ducksalad; [25]) was 40, the “Plant response rating, Ducksalad” value (ducksalad; [26]) was 50 and the “Plant response rating, Ducksalad” value (ducksalad; 125 g ai/ha, scale 0 to 100) was 50. The “Plant response rating, Ducksalad” value (ducksalad; 250 g ai/ha, scale 0 to 100) was 60, the “Plant response rating, Barnyardgrass” value (barnyardgrass [17]; [25]) was 0 and the “Plant response rating, Barnyardgrass” value (barnyardgrass [17]; [26]) was 0. The “Plant response rating, Barnyardgrass” value (barnyardgrass [17]; 125 g ai/ha, scale 0 to 100) was 0 and the “Plant response rating, Barnyardgrass” value (barnyardgrass [17]; 250 g ai/ha, scale 0 to 100) was 0.

With `CCc1cc(C(=O)NOC(C)(C)CC)nn1Cc1cccc(OC(F)(F)F)c1` [Compound 71] the “Barnyardgrass plant response rating” value (barnyardgrass [1]; [18]) was 80, the “Barnyardgrass plant response rating” value (barnyardgrass [1]; [19]) was 60 and the “Crabgrass, Large plant response rating” value (crabgrass, large [2]; [18]) was 100. The “Crabgrass, Large plant response rating” value (crabgrass, large [2]; [19]) was 90, the “Foxtail, Giant plant response rating” value (foxtail, giant [3]; [18]) was 100 and the “Foxtail, Giant plant response rating” value (foxtail, giant [3]; [19]) was 80. For the same compound, the “Morningglory plant response rating” value (morningglory [4]; [18]) was 50, the “Morningglory plant response rating” value (morningglory [4]; [19]) was 20 and the “Pigweed plant response rating” value (pigweed [5]; [18]) was 100. For the same compound, the “Pigweed plant response rating” value (pigweed [5]; [19]) was 80, the “Velvetleaf plant response rating” value (velvetleaf [6]; [18]) was 40 and the “Velvetleaf plant response rating” value (velvetleaf [6]; [19]) was 30. For the same compound, the “Wheat plant response rating” value (wheat [7]; [20]) was 0, the “Wheat plant response rating” value (wheat [7]; 500 g ai/ha, visual injury after approx. 10 days, 0 to 100 scale (0 no effect, 100 complete control)) was 70 and the “Corn plant response rating” value (corn [8]; [18]) was 10. The “Corn plant response rating” value (corn [8]; [19]) was 0, the “Barnyardgrass plant response rating” value (barnyardgrass [9]; [21]) was 30 and the “Barnyardgrass plant response rating” value (barnyardgrass [9]; [22]) was 70. For the same compound, the “Crabgrass, Large plant response rating” value (crabgrass, large [10]; [23]) was 80, the “Crabgrass, Large plant response rating” value (crabgrass, large [10]; [24]) was 40 and the “Foxtail, Giant plant response rating” value (foxtail, giant [11]; [23]) was 70. For the same compound, the “Foxtail, Giant plant response rating” value (foxtail, giant [11]; [24]) was 40, the “Morningglory plant response rating” value (morningglory [12]; [23]) was 40 and the “Morningglory plant response rating” value (morningglory [12]; [24]) was 40. The “Pigweed plant response rating” value (pigweed [13]; [23]) was 80, the “Pigweed plant response rating” value (pigweed [13]; [24]) was 40 and the “Velvetleaf plant response rating” value (velvetleaf [14]; [23]) was 100. For the same compound, the “Velvetleaf plant response rating” value (velvetleaf [14]; [24]) was 50, the “Wheat plant response rating” value (wheat [15]; [23]) was 50 and the “Wheat plant response rating” value (wheat [15]; [24]) was 30. The “Corn plant response rating” value (corn [16]; [23]) was 50, the “Corn plant response rating” value (corn [16]; [24]) was 30 and the “Plant response rating, Rice” value (rice; [26]) was 0. The “Plant response rating, Rice” value (rice; 125 g ai/ha, scale 0 to 100) was 30, the “Plant response rating, Rice” value (rice; 250 g ai/ha, scale 0 to 100) was 45 and the “Plant response rating, Sedge, Umbrella” value (sedge, umbrella; [26]) was 70. For the same compound, the “Plant response rating, Sedge, Umbrella” value (sedge, umbrella; 125 g ai/ha, scale 0 to 100) was 75, the “Plant response rating, Sedge, Umbrella” value (sedge, umbrella; 250 g ai/ha, scale 0 to 100) was 85 and the “Plant response rating, Ducksalad” value (ducksalad; [26]) was 0. For the same compound, the “Plant response rating, Ducksalad” value (ducksalad; 125 g ai/ha, scale 0 to 100) was 0, the “Plant response rating, Ducksalad” value (ducksalad; 250 g ai/ha, scale 0 to 100) was 0 and the “Plant response rating, Barnyardgrass” value (barnyardgrass [17]; [26]) was 0. The “Plant response rating, Barnyardgrass” value (barnyardgrass [17]; 125 g ai/ha, scale 0 to 100) was 20 and the “Plant response rating, Barnyardgrass” value (barnyardgrass [17]; 250 g ai/ha, scale 0 to 100) was 40.
